From article PMC12175168, “Refining the Amino Reactivity-Based Identification of Respiratory Sensitizers” (Chemical Research in Toxicology, 2025)
Where “and” joins values, the source holds several entries; their conditions need not be identical. Identical values can stand only once. Entries after “also recorded” stand apart in the source; their conditions may differ.

What was measured:
[1] = DPRA-like chemoassay with Gly-pNA (24 h percent depletion); conditions: PPB pH 7.4, 24 h, 25 °C, 50-fold excess of test compound
Experimental: (§1) In addition to the kinetic Gly-pNA chemoassay, the reactivity of the 27 compounds toward Gly-pNA and Lys-pNA was determined in terms of percentage depletions after reacting for 24 h at 25 °C employing the following DPRA-like setup: stock solutions for the test compounds were prepared by gravimetrically adding at least 3 mg of the respective compound into a glass vial (total volume 1.8 mL) and subsequent addition of 1 mL ACN. […] The stock solutions for Gly-pNA and Lys-pNA with a final concentration of 1.7 mM were prepared by dissolving the required amount in one of the three aqueous buffer solutions used for this DPRA-like chemoassay: phosphate buffer (80 mM, pH 7.4), phosphate buffer (80 mM, pH 10.2), and ammonium acetate buffer (100 mM, pH 10.2). Glass vials (1.8 mL) were used as reaction vessels.
(§2) In the final reaction mixtures, the concentration of Gly-pNA or Lys-pNA was 0.03 mM, and the test compound was 50 times in excess (1.5 mM). After incubation for 24 h at 25 °C, the free amount of either Gly-pNA or Lys-pNA was determined using the HPLC UV–vis method described for the kinetic Gly-pNA chemoassay. , The percentage depletion of Gly-pNA (D Gly) or Lys-pNA (D Lys) was determined directly from peak areas according to eq 3 Dx[%]=(Axcontrol−Ax/Axcontrol×100)withx=GlyorLys
(§3) In eq , A x and A x ^control are the peak areas of the chromatographic signal of either Gly-pNA (x = Gly) or Lys-pNA (x = Lys) at 315 nm after 24 h incubation with and without test compound, respectively.
(§4) Summary of experimental conditions of the DPRA-like setups used to determine
(§5) DGly, D Lys, and D DPRA data in Table 2 (main text).
(§6) Table S2. Overview of experimental conditions for the DPRA-like setups used to
(§7) determine 24 h percentage depletion rates for the reaction of the test compounds with
(§8) Gly-pNA, Lys-pNA, and the DPRA lysine peptide (literature data).

[2] = DPRA-like chemoassay with Lys-pNA (24 h percent depletion); conditions: 25 °C, 50-fold excess of test compound
Experimental: as §1, §2, §3, §4, §5, §6, §7, §8

physchem = assay: physchem
Experimental: To this end, the test compound was dissolved in 1 mL ACN in a glass vial. […] As reaction batches, 1.8 mL glass vials equipped with 400 μL glass inserts were used and filled with 220 μL of the respective aqueous buffer and 80 μL of the test compound stock solution. The depletion of the test compounds was recorded with the HPLC UV–vis instrument used for the kinetic Gly-pNA chemoassay. , Chromatographic separation of the reaction mixture was achieved using the gradient described for the Gly-pNA chemoassay previously , and an isocratic HPLC method (water/ACN 70:30, both with 0.1 vol % formic acid). The wavelengths used for the detection of the compound and the information on the used chromatographic method are given in the Supporting Information in Table S3.

DPRA lysine peptide = system: DPRA lysine peptide; set-up: method as in literature; conditions: AAB pH 10.2, 24 h; ref literature; cited from earlier work
[3] = Kinetic Gly-pNA chemoassay (second-order rate constant k Gly);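 further: Gly-pNA depletion followed over time by chromatographic peak area, with test compound in at least tenfold excess (pseudo-first-order), added from acetonitrile stock, at least three runs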
Experimental: The reactivity of the 27 test compounds toward Gly-pNA was quantified in terms of the second-order reaction rate constant k Gly using our Gly-pNA chemoassay. , In brief, stock solutions of the test compound were freshly obtained every day by gravimetrically adding the required amount into a 10 mL volumetric flask, which was subsequently filled to volume with acetonitrile (ACN). The required amounts of test compounds depended on their reactivity toward Gly-pNA. […] As usual for kinetic studies, fast reacting chemicals are applied at lower concentrations than little reactive candidates. All stock solutions were stored at 25 °C in a climate chamber before first use (ca. 30 min) and for repeating an experiment (max. 6 h). Gly-pNA stock solution (1.69 mM) was obtained by dissolving 3.3 mg Gly-pNA in 10 mL phosphate buffer solution (80 mM) and could be used for several weeks if stored at 4 °C. For all chemoassay experiments, 1.8 mL glass vials were used as reaction batches, which were initially filled with 1070 μL phosphate buffer (80 mM) and 30 μL Gly-pNA stock solution. To start the reaction, 400 μL of the test compound stock solutions was added. […] The time between the start of the reaction and the first analysis was measured with an electronic time clock. All reactions were performed under pseudo-1st order conditions with the electrophile being at least ten times in excess over Gly-pNA.
For these compounds, the minimum reactivity was estimated in terms of k Gly by plotting ln (A Gly ^ t /A Gly ^0) vs reaction time t (with A Gly ^ t and A Gly ^0 being the peak areas under the chromatographic signal for Gly-pNA at time t and at the beginning of the reaction (t = 0)). Linear regression through 0 (at t = 0) and the first measurement point yields slope s (see Figure S1) which is the pseudo-1st order rate constant k Gly ^pseudo that can be converted with the initial test compound concentration in the reactions mixture (c) into k Gly according to eq . 1 kGly=kGlypseudo/c
2 Ln(AGlyt/AGly0)≈−kGly·c·t+0.5·kGly·kloss·c·t^2 Here k loss is the first order rate constant covering all processes contributing to the loss of the test compounds, except the reaction with Gly-pNA. The regression parameter of the linear part of eq (= k Gly·c) is the pseudo-1st order rate constant k Gly ^pseudo and can be converted into k Gly according to eq (see above).
Linear regression of these plots provides slope s, which is again the pseudo-1st order rate constant, k Gly ^pseudo, and can be used to calculate k Gly according to eq . All experiments to determine k Gly have been conducted at least three times.

[4] = ref Krutz et al., Sadekar et al., Ponder et al., Karol et al., Hopkins et al.; cited from earlier work
[5] = AAB (ammonium acetate buffer) pH 10.2, 24 h
[6] = reaction with Gly-pNA, phosphate buffer 80 mM, 25 °C, nominal test compound concentration, ≥ values are minimum reactivity
[7] = buffer, pH 7.4, half-lives t 1/2 ± s(t 1/2), PPB (phosphate buffer 80 mM) pH 7.4
[8] = buffer, pH 10.2, half-lives t 1/2 ± s(t 1/2), AAP (ammonium acetate buffer 100 mM) pH 10.2
[9] = buffer, pH 10.2, half-lives t 1/2 ± s(t 1/2), PPB (phosphate buffer 80 mM) pH 10.2
[10] = reaction with Gly-pNA, phosphate buffer, nominal test compound concentration
[11] = aqueous ammonium acetate buffer with acetonitrile, pH 10.2
[12] = PPB (phosphate buffer 80 mM) pH 7.4
[13] = PPB (phosphate buffer 80 mM) pH 10.2
[14] = determined using the free (not bound by water) fraction of F1

Structure (SMILES)	D Gly ± s(D Gly), 24 h percent depletion of Gly-pNA [1]	D Lys ± s(D Lys), 24 h percent depletion of Lys-pNA [2, 5]	D Lys ± s(D Lys), 24 h percent depletion of Lys-pNA ([2]; PPB pH 10.2, 24 h)	D DPRA ± s(D DPRA), depletion of the DPRA lysine peptide (DPRA lysine peptide)	k Gly ± s(k Gly), second-order rate constant [3, 6]	half-life (physchem; [7])	half-life (physchem; [8])	half-life (physchem; [9])	Classification as potential respiratory sensitizer or non-sensitizer [4]	log k Gly [3, 10]	further results
Cc1ccc(N=C=O)cc1N=C=O [A1, 2,4-Toluene diisocyanate]	100%	18.8 ± 0.6%	100%	22.0 ± 1.4%	≥33484 ± 803 L mol^–1 min^–1	–	–	–	–	–	half-life (physchem; buffer, pH 7.4, half-lives t 1/2 ± s(t 1/2)): < 1 min; half-life (physchem; buffer, pH 10.2, half-lives t 1/2 ± s(t 1/2)): < 1 min
O=C=Nc1cccc2c(N=C=O)cccc12 [A2, 1,5-naphthalene diisocyanate]	100%	19.9 ± 3.7%	100%	–	≥24928 ± 12821 L mol^–1 min^–1	3.6 ± 1.6 min	< 1 min	2.6 ± 1.1 min	potential respiratory sensitizer	≥4.40	–
Cc1c(N=C=O)cccc1N=C=O [A3, 2,6-toluene diisocyanate]	100%	20.7 ± 1.4%	100%	26.5 ± 0.7%	≥20880 ± 695 L mol^–1 min^–1	< 1 min	< 1 min	< 1 min	potential respiratory sensitizer	≥4.32	–
O=C=NCCCCCCN=C=O [B1, hexamethylene diisocyanate]	100%	23.3 ± 0.3%	98.7 ± 2.2%	41.6 ± 7.3%	451 ± 33 L mol^–1 min^–1	–	–	–	potential respiratory sensitizer	2.65	–
CC1(C)CC(N=C=O)CC(C)(CN=C=O)C1 (centres unmarked) [B2, isophorone diisocyanate]	100%	21.5 ± 0.3%	100%	28.0%	256 ± 6 L mol^–1 min^–1	–	–	–	potential respiratory sensitizer	2.41	–
O=C1C=CC(=O)O1 [C4, maleic anhydride]	100%	12.0 ± 1.1%	100%	54.0 ± 25.5%	≥5930 ± 160 L mol^–1 min^–1	35.3 ± 1.3 min	< 1 min	2.7 min	–	3.77	–
O=C1OC(=O)C2C3C=CC(C3)C12 (centres unmarked) [C5, himic anhydride]	100%	29.6 ± 0.3%	98.9 ± 0.1%	–	4126 ± 114 L mol^–1 min^–1	–	–	–	potential respiratory sensitizer	3.62	half-life (physchem; [11]): < 1 min; half-life (physchem; aqueous phosphate buffer with acetonitrile, pH 7.4): 6.79 ± 0.13 min; half-life (physchem; aqueous phosphate buffer with acetonitrile, pH 10.2): 1.3 ± 0.41 min; k Gly ± s(k Gly), second-order rate constant ([3]; reaction with Gly-pNA, phosphate buffer 80 mM, 25 °C, nominal test compound concentration, ≥ values are minimum reactivity, listed as himic anhydride): 4126 L mol^–1 min^–1
CC12CC=CCC1C(=O)OC2=O (centres unmarked) [D2, methyltetrahydrophthalic anhydride]	100%	18.0 ± 0.9%	100%	–	2051 ± 32 L mol^–1 min^–1	2.24 ± 0.03 min	< 1 min	< 1 min	potential respiratory sensitizer	3.31	–
O=[N+]([O-])c1ccc(S(=O)(=O)Cl)c([N+](=O)[O-])c1 [E1, 2,4-dinitrobenzenesulfonyl chloride]	56.1% and 56.1 ± 0.5%	13.4% and 13.4 ± 0.8%	62.6% and 62.6 ± 4.2%	–	–	< 1 min	< 1 min	< 1 min	–	–	–
Clc1nc(Cl)nc(Cl)n1 [E2, 2,4,6-trichloro-1,3,5-triazine]	100%	91.1 ± 1.1%	100%	99.7 ± 0.6%	≥1424 ± 364 L mol^–1 min^–1	1.14 ± 0.05 min	< 1 min	< 1 min	–	–	–
O=[N+]([O-])c1ccc(F)c([N+](=O)[O-])c1 [E3, 1-fluoro-2,4-dinitrobenzene]	72.7% and 72.7 ± 0.7%	84.0 ± 3.3%	100%	–	3.95 ± 0.07 L mol^–1 min^–1	–	73.2 ± 9.7 min	615 ± 31 min	non-sensitizer	0.6	half-lives t 1/2 ± s(t 1/2) (physchem; [12]): no depletion
O=[N+]([O-])c1ccc(Cl)c([N+](=O)[O-])c1 [E4, 1-chloro-2,4-dinitrobenzene]	–	5.0 ± 0.7%	8.1 ± 0.5%	21.1 ± 16.3%	–	–	–	–	non-sensitizer	–2.20	half-lives t 1/2 ± s(t 1/2) (physchem; AAP (ammonium acetate buffer 100 mM) pH 10.2): did not show any significant signal depletion; also recorded: no depletion; half-lives t 1/2 ± s(t 1/2) (physchem; [12]): no depletion; half-lives t 1/2 ± s(t 1/2) (physchem; [13]): no depletion
C=C(C#N)C(=O)OCC [F1, ethyl 2-cyanoacrylate]	98.3 ± 0.1%	1.6 ± 0.2%	40.2% and 40.2 ± 1.9%	–	2.22 ± 0.33 L mol^–1 min^–1	–	–	–	–	0.35	k Gly ± s(k Gly), second-order rate constant [3, 14]: 10886 L mol^–1 min^–1 and 10886 ± 1589 ^c L mol^–1 min^–1; log k Gly [3, 14]: 4.02 and 4.04; free (reactive) fraction, not bound to water ([3]; in the Gly-pNA chemoassay setup): < 0.1%
C=C(C)C(=O)OC [F5, methyl methacrylate]	–	0.7 ± 0.3%	2.6 ± 1.3%	10.6 ± 0.8%	–	–	3060 ± 625 min	1880 ± 488 min	–	–	half-lives t 1/2 ± s(t 1/2) (physchem; [12]): no depletion
Cc1ccc(S(=O)(=O)NCl)cc1 [G2, chloramine T]	100%	23.9 ± 1.6%	53.8 ± 2.9%	80.8 ± 30.7%	41.9 ± 0.2 L mol^–1 min^–1	–	–	–	–	1.62	half-lives t 1/2 ± s(t 1/2) (physchem; [12]): no depletion; half-lives t 1/2 ± s(t 1/2) (physchem; [13]): no depletion; half-life (physchem; [11]): 58.5 ± 1.3 min
